Measurements from PubChem BioAssay AID248 (DTP/NCI, 2004).
Inconclusive results and toxic doses are left out.

System: L1210 leukemia ip in BDF1 mice, survival T/C
Assay: NCI In Vivo Anticancer Drug Screen. Data for tumor model L1210 Leukemia (intraperitoneal) in B6D2F1 (BDF1) mice
Conditions: endpoint: mean survival time, higher = longer survival
Method in brief: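 Ratio derived from survival: compound-dosed mice over vehicle-dosed mice, all bearing a transplantable tumor.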

[1] = dose: 75.0 mg/kg/injection, schedule: Q01DX001 (ip), vehicle: saline
[2] = dose: 150.0 mg/kg/injection, schedule: Q01DX001 (ip), vehicle: saline
[3] = dose: 100.0 mg/kg/injection, schedule: Q01DX001 (ip), vehicle: saline
[4] = dose: 200.0 mg/kg/injection, schedule: Q01DX001 (ip), vehicle: saline
[5] = dose: 400.0 mg/kg/injection, schedule: Q01DX001 (ip), vehicle: saline
[6] = dose: 100.0 mg/kg/injection, schedule: Q01DX009 (ip), vehicle: Klucel (hydroxypropylcellulose) (HPC)
[7] = dose: 200.0 mg/kg/injection, schedule: Q01DX009 (ip), vehicle: Klucel (hydroxypropylcellulose) (HPC)
[8] = dose: 100.0 mg/kg/injection, schedule: Q04DX003 (ip), vehicle: saline
[9] = dose: 200.0 mg/kg/injection, schedule: Q04DX003 (ip), vehicle: saline
[10] = dose: 400.0 mg/kg/injection, schedule: Q04DX003 (ip), vehicle: saline
[11] = dose: 100.0 mg/kg/injection, schedule: Q01DX001 (ip), vehicle: carboxymethylcellulose (CMC)
[12] = dose: 100.0 mg/kg/injection, schedule: Q04DX003 (ip), vehicle: saline with Tween-80
[13] = dose: 200.0 mg/kg/injection, schedule: Q04DX003 (ip), vehicle: saline with Tween-80
[14] = dose: 400.0 mg/kg/injection, schedule: Q04DX003 (ip), vehicle: saline with Tween-80

C[C@]12C=CC(=O)C=C1CC[C@H]1[C@@H]3CCC(=O)O[C@@]3(C)CC(=O)[C@@]12F
T/C (dose: 50.0 mg/kg/injection, schedule: Q01DX001 (sc), vehicle: steriod suspending solution): 102 % of control
T/C (dose: 50.0 mg/kg/injection, schedule: Q01DX009 (sc), vehicle: steriod suspending solution): 102 % of control
T/C (dose: 100.0 mg/kg/injection, schedule: Q01DX001 (sc), vehicle: steriod suspending solution): 104 % of control
T/C (dose: 100.0 mg/kg/injection, schedule: Q01DX009 (sc), vehicle: steriod suspending solution): 100 % of control
T/C (dose: 200.0 mg/kg/injection, schedule: Q01DX001 (sc), vehicle: steriod suspending solution): 107 % of control
T/C (dose: 200.0 mg/kg/injection, schedule: Q01DX009 (sc), vehicle: steriod suspending solution): 97 % of control
T/C (dose: 400.0 mg/kg/injection, schedule: Q01DX001 (sc), vehicle: steriod suspending solution): 113 % of control
T/C (dose: 400.0 mg/kg/injection, schedule: Q01DX009 (sc), vehicle: steriod suspending solution): 100 % of control

COc1ccc2c(c1O)[C@]13CCN(C)[C@H](C2)[C@@H]1CCC(=O)C3
T/C [1]: 101 % of control
T/C [2]: 106 % of control

CCOC(=O)C(CCCCC(C(=O)OCC)C(=O)OCC)C(=O)OCC
T/C [3]: 103 % of control
T/C [4]: 109 % of control
T/C [5]: 105 % of control

c1ccc(CNCc2ccccc2)cc1
T/C (dose: 50.0 mg/kg/injection, schedule: Q01DX009 (ip), vehicle: Klucel (hydroxypropylcellulose) (HPC)): 93 % of control
T/C [6]: 93 % of control
T/C (dose: 100.0 mg/kg/injection, schedule: Q04DX003 (ip), vehicle: Klucel (hydroxypropylcellulose) (HPC)): 95 % of control
T/C [7]: 100 % of control
T/C (dose: 200.0 mg/kg/injection, schedule: Q04DX003 (ip), vehicle: Klucel (hydroxypropylcellulose) (HPC)): 95 % of control

C#CC(C)(O)c1ccccc1 (configuration not stated)
T/C [6]: 98 % of control
T/C [7]: 98 % of control

CC(=O)Oc1cccc2ccc(/C=C/c3cccc[n+]3C)nc12
T/C (dose: 4.0 mg/kg/injection, schedule: Q01DX015 (ip), vehicle: carboxymethylcellulose (CMC)): 95 % of control
T/C (dose: 8.0 mg/kg/injection, schedule: Q01DX015 (ip), vehicle: carboxymethylcellulose (CMC)): 107 % of control
T/C (dose: 16.0 mg/kg/injection, schedule: Q01DX015 (ip), vehicle: carboxymethylcellulose (CMC)): 97 % of control
T/C (dose: 32.0 mg/kg/injection, schedule: Q01DX015 (ip), vehicle: carboxymethylcellulose (CMC)): 102 % of control

COc1ccc(OC)c2c(C)cc(=O)[nH]c12
T/C [3]: 97 % of control
T/C [4]: 98 % of control

CN(N=O)C(=O)NC1C(O)C(CO)OC1n1ccc(=O)[nH]c1=O (configuration not stated)
T/C [8]: 98 % of control
T/C [9]: 96 % of control
T/C [10]: 102 % of control

CC[n+]1cccc(NC(=O)c2ccc(NC(=O)c3ccc(C(=O)Nc4ccc(C(=O)Nc5ccc[n+](CC)c5)c(N)c4)cc3)cc2N)c1
T/C (dose: 2.5 mg/kg/injection, schedule: Q01DX015 (ip), vehicle: other): 187 % of control
T/C (dose: 5.0 mg/kg/injection, schedule: Q01DX015 (ip), vehicle: other): 264 % of control
T/C (dose: 8.0 mg/kg/injection, schedule: Q01DX015 (ip), vehicle: other): 246 % of control
T/C (dose: 10.0 mg/kg/injection, schedule: Q01DX015 (ip), vehicle: other): 150 % of control
T/C (dose: 22.0 mg/kg/injection, schedule: Q01DX001 (ip), vehicle: other): 156 % of control
T/C (dose: 22.0 mg/kg/injection, schedule: Q01DX015 (ip), vehicle: other): 114 % of control
T/C (dose: 25.0 mg/kg/injection, schedule: Q01DX001 (ip), vehicle: other): 174 % of control
T/C (dose: 33.0 mg/kg/injection, schedule: Q01DX001 (ip), vehicle: other): 168 % of control
T/C (dose: 37.0 mg/kg/injection, schedule: Q01DX015 (ip), vehicle: other): 90 % of control
T/C (dose: 50.0 mg/kg/injection, schedule: Q01DX001 (ip), vehicle: other): 203 % of control
T/C (dose: 55.0 mg/kg/injection, schedule: Q01DX001 (ip), vehicle: other): 219 % of control
T/C (dose: 75.0 mg/kg/injection, schedule: Q01DX001 (ip), vehicle: other): 212 % of control

CN(CCO)C(c1ccccc1)c1ccccc1
T/C [3]: 100 % of control
T/C [4]: 94 % of control
T/C [5]: 103 % of control

CCOC(=O)c1ccc2ccccc2[n+]1C
T/C [1]: 89 % of control
T/C [2]: 94 % of control
T/C (dose: 300.0 mg/kg/injection, schedule: Q01DX001 (ip), vehicle: saline): 91 % of control

CC1C(C)(C)P(=O)(SCc2ccccc2)C1(C)C (configuration not stated)
T/C [8]: 94 % of control
T/C [9]: 103 % of control
T/C [10]: 100 % of control

CC(=O)c1ccc2nc(C)cc(Cl)c2c1
T/C [3]: 96 % of control
T/C [4]: 91 % of control
T/C [5]: 96 % of control

CC1=C(C(=O)O)C(c2ccccc2)CC(=O)N1 (configuration not stated)
T/C (dose: 50.0 mg/kg/injection, schedule: Q01DX001 (ip), vehicle: carboxymethylcellulose (CMC)): 96 % of control
T/C [11]: 104 % of control
T/C (dose: 200.0 mg/kg/injection, schedule: Q01DX001 (ip), vehicle: carboxymethylcellulose (CMC)): 98 % of control
T/C (dose: 400.0 mg/kg/injection, schedule: Q01DX001 (ip), vehicle: carboxymethylcellulose (CMC)): 98 % of control

O=Cc1[nH]c(=S)[nH]c(=O)c1Cc1ccc([N+](=O)[O-])cc1
T/C [12]: 93 % of control
T/C [13]: 92 % of control
T/C [14]: 100 % of control

COC1OCC(O)C(NC(C)=O)C1O (configuration not stated)
T/C [3]: 105 % of control
T/C [4]: 107 % of control
T/C [5]: 100 % of control

Cc1ccc2[nH]c(=O)cc(C)c2c1
T/C [11]: 102 % of control
T/C [12]: 95 % of control
T/C [13]: 98 % of control
T/C [14]: 101 % of control

Cc1ccc(NC(=O)Nc2cccc(C(F)(F)F)c2)cc1Cl
T/C (dose: 100.0 mg/kg/injection, schedule: Q01DX009 (ip), vehicle: gum acacia): 92 % of control
T/C (dose: 200.0 mg/kg/injection, schedule: Q01DX009 (ip), vehicle: gum acacia): 89 % of control
T/C (dose: 400.0 mg/kg/injection, schedule: Q01DX009 (ip), vehicle: gum acacia): 91 % of control

CC(C)=CCC/C(C)=C/Cn1cnc2c(ncn2C2OC(CO)C(O)C2O)c1=O (configuration not stated)
T/C (dose: 12.5 mg/kg/injection, schedule: Q01DX009 (ip), vehicle: saline): 100 % of control
T/C (dose: 25.0 mg/kg/injection, schedule: Q01DX005 (ip), vehicle: saline): 97 % of control
T/C (dose: 25.0 mg/kg/injection, schedule: Q01DX009 (ip), vehicle: saline): 100 % of control
T/C (dose: 50.0 mg/kg/injection, schedule: Q01DX005 (ip), vehicle: saline): 108 % of control
T/C (dose: 50.0 mg/kg/injection, schedule: Q01DX009 (ip), vehicle: saline): 92 % of control
T/C (dose: 100.0 mg/kg/injection, schedule: Q01DX005 (ip), vehicle: saline): 96 % of control

CC(C)(C)C1CCC2(CC1)CCN(CCCN1CCCCCC1)CC2
T/C (dose: 50.0 mg/kg/injection, schedule: Q01DX001 (ip), vehicle: saline): 96 % of control
T/C [3]: 107 % of control

CN=C(N)N
T/C [12]: 102 % of control
T/C [13]: 101 % of control
T/C [14]: 103 % of control

O=C(O)C1CCCC[N-]1.O=C(O)C1CCCC[N-]1.O=C(O)C1CCCC[N-]1.O=C(O)C1CCCC[N-]1.[Cl][Rh][Cl] (configuration not stated)
T/C (dose: 12.5 mg/kg/injection, schedule: Q01DX008 (ip), vehicle: water): 98 % of control
T/C (dose: 25.0 mg/kg/injection, schedule: Q01DX008 (ip), vehicle: water): 98 % of control
T/C (dose: 50.0 mg/kg/injection, schedule: Q01DX008 (ip), vehicle: water): 103 % of control
T/C (dose: 100.0 mg/kg/injection, schedule: Q01DX008 (ip), vehicle: water): 97 % of control
T/C (dose: 100.0 mg/kg/injection, schedule: Q01DX009 (ip), vehicle: saline): 93 % of control
T/C [8]: 102 % of control
T/C [9]: 100 % of control
T/C [10]: 96 % of control

Cc1ccc(S(=O)(=O)OCC2C3CCC4C3C(C)(C)CCCC24C)cc1 (configuration not stated)
T/C (dose: 100.0 mg/kg/injection, schedule: Q01DX001 (ip), vehicle: Klucel (hydroxypropylcellulose) (HPC)): 107 % of control
T/C (dose: 200.0 mg/kg/injection, schedule: Q01DX001 (ip), vehicle: Klucel (hydroxypropylcellulose) (HPC)): 95 % of control
T/C (dose: 400.0 mg/kg/injection, schedule: Q01DX001 (ip), vehicle: Klucel (hydroxypropylcellulose) (HPC)): 90 % of control
